Data as given in ChEMBL document CHEMBL1135368, “The discovery of small molecule carbamates as potent dual alpha(4)beta(1)/alpha(4)beta(7) integrin antagonists” (Bioorg Med Chem Lett, 2002).
Starred links: 1 amine or outer side, 2 acyl side, 3 side chain; linkers in the order of their positions; H or OH if unused. Residues, ends and D or L forms follow the SMILES beside them. Groups on a side chain read outwards from the residue. *: point of attachment. Pyrrolidide = C1CCN(*)C1; CO = O=C([*:1])[*:2]; Ms = CS(=O)(=O)*

How the values were obtained:
Integrin alpha-4/beta-7 [1] = molecular target: T1, Integrin alpha-4/beta-7 (Homo sapiens, UniProt P13612+P26010); assay: Alpha4-beta7 integrin binding affinity was determined in duplicate by a radioligand binding assay using [125I]-VCAM-Ig and a suspension of RPMI-8866 cells (a human B cell line alpha-4-beta-1-beta-7+); assay type: cell-based
T1 sequence (P13612 whole entry): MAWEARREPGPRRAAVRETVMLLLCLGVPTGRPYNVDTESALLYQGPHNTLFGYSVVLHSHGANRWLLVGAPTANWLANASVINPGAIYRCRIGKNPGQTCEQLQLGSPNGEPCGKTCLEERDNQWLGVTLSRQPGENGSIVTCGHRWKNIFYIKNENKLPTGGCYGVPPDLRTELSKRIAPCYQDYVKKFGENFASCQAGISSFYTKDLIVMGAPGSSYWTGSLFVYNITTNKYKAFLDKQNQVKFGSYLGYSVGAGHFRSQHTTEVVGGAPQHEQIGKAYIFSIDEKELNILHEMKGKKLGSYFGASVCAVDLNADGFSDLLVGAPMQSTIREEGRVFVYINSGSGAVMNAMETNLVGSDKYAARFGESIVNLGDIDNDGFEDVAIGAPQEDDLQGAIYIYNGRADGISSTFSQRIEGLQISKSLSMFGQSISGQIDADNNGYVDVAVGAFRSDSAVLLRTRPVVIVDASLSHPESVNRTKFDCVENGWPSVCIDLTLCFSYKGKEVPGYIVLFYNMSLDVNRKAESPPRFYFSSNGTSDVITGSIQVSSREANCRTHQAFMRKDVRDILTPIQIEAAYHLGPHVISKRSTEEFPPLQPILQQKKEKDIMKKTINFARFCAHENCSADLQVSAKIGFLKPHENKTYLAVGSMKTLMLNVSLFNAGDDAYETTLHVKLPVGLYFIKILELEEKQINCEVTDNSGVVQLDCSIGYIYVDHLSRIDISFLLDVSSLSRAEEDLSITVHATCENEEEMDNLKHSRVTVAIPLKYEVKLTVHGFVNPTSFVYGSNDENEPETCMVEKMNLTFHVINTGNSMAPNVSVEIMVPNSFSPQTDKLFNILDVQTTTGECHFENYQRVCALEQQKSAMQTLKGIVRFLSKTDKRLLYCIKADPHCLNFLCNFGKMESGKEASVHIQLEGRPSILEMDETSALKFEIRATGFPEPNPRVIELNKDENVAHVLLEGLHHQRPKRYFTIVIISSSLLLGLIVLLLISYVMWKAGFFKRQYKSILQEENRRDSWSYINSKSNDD
T1 sequence (P26010 whole entry): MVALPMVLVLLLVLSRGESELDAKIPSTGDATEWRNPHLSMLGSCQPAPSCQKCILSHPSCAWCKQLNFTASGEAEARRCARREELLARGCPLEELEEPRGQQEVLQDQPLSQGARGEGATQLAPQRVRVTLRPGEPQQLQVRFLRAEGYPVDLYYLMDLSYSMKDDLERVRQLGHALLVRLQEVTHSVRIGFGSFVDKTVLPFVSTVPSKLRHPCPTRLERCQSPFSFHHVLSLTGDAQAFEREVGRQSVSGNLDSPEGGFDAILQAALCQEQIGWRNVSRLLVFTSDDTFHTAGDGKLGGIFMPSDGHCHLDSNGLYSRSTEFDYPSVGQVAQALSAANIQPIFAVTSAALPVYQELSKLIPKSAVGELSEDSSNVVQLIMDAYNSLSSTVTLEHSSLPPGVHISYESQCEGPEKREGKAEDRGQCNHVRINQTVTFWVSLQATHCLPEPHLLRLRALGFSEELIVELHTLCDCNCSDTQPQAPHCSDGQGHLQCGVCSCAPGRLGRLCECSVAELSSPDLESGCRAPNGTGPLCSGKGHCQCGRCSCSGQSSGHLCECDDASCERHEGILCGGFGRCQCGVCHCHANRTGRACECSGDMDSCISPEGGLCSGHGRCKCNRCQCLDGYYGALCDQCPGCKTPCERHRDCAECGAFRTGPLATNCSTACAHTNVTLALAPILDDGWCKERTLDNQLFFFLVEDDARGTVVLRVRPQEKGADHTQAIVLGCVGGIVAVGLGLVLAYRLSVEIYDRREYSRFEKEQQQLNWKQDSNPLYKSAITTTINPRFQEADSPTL

[2] = Tested for plasma half life period in rat (0-8 hr); assay type: ADME, organism-based
Integrin alpha-4/beta-1 = Integrin alpha-4/beta-1 (Homo sapiens, UniProt P05556+P13612); assay: Alpha4-beta1 integrin binding affinity was assessed by measuring the reduction in binding of [125I]VCAM-Ig to a suspension of Jurkat cells (a human T cell line alpha-4-beta-1-beta-7); assay type: cell-based
Rattus norvegicus [3] = assay: Plasma clearance value at intravenous dose of 1 mg/kg (2 mg/kg po (cassette dosing)) in Dawley rat; assay type: ADME, organism-based; design: dose 1 mg/kg; settings: in vivo
Integrin alpha-4/beta-7 [4] = molecular target: T1, Integrin alpha-4/beta-7; assay: Inhibition of [125I]VCAM-Ig binding to Alpha4-beta7 integrin of RPMI-8866 cells; assay type: cell-based
Integrin alpha-4/beta-7 [5] = molecular target: T1, Integrin alpha-4/beta-7; assay: Inhibition of [125I]VCAM-Ig binding to Alpha4-beta7 integrin of RPMI-8866 cells at […] (inactive); assay type: cell-based
Rattus norvegicus [6] = assay: Plasma clearance value at intravenous dose of 1 mg/kg (2 mg/kg po (cassette dosing) in Dawley rat; assay type: ADME, organism-based; design: dose 1 mg/kg; settings: in vivo

Integrin alpha-4/beta-1, sequence (P05556 whole entry, one chain of several): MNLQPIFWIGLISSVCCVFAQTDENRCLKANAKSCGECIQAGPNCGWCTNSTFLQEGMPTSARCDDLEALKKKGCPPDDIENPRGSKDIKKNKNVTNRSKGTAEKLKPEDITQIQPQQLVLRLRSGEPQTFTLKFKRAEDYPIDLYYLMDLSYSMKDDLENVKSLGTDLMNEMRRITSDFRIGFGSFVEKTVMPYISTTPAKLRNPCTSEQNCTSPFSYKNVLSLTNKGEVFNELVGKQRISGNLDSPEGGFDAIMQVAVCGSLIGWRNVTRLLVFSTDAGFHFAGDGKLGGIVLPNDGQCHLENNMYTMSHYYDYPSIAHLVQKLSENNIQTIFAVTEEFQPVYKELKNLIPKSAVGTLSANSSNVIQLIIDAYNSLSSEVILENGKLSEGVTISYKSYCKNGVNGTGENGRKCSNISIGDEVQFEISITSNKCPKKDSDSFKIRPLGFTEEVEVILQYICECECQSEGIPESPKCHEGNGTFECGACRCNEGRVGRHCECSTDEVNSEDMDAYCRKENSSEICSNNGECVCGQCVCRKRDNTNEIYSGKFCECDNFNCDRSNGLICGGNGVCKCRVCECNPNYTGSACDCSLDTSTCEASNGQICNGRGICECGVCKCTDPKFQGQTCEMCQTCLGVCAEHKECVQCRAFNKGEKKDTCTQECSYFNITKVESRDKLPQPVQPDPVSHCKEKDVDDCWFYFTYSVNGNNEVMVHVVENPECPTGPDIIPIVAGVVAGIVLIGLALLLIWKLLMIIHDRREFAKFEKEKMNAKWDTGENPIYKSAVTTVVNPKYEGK

Row | Structure (SMILES) | IC50 (Integrin alpha-4/beta-7 [1]) | IC50 (Integrin alpha-4/beta-1) | also measured
1 | CN(C(=O)Oc1ccc(C[C@H](NC(=O)[C@]2(C)CCCN2S(=O)(=O)c2cc(Cl)cc(Cl)c2)C(=O)O)cc1)c1ccccc1 | 12.3 nM | 0.25 nM | half-life [2]: 12 min; Clp (Rattus norvegicus [3]): 2.28 L/h/kg
2 | COc1ccc(C[C@H](NC(=O)[C@@H]2CCCN2S(=O)(=O)c2cc(Cl)cc(Cl)c2)C(=O)O)cc1 | – | 0.37 nM | IC50 (Integrin alpha-4/beta-7 [4]): 362 nM
3 | CS(=O)(=O)N1CCC[C@H]1C(=O)N[C@@H](Cc1ccc(OC(=O)N2CCCC2)cc1)C(=O)O (Ms-Pro-Tyr([CO-Pyrrolidide])-OH) | 4.4 nM | 0.5 nM | –
4 | O=C(Oc1ccc(C[C@H](NC(=O)[C@@H]2CCCN2S(=O)(=O)c2cc(Cl)cc(Cl)c2)C(=O)O)cc1)c1ccccc1 | 43.2 nM | 0.45 nM | –
5 | C[C@@]1(C(=O)N[C@@H](Cc2ccc(OC(=O)N3CCOCC3)cc2)C(=O)O)CCCN1S(=O)(=O)c1cc(Cl)cc(Cl)c1 | 3.51 nM | 0.13 nM | Clp (Rattus norvegicus [3]): 3 L/h/kg
6 | O=C(O)[C@H](Cc1ccc(OCc2nnn[nH]2)cc1)NC(=O)[C@@H]1CCCN1S(=O)(=O)c1cc(Cl)cc(Cl)c1 | 166 nM | 0.21 nM | –
7 | COCCOc1ccc(C[C@H](NC(=O)[C@@H]2CCCN2S(=O)(=O)c2cc(Cl)cc(Cl)c2)C(=O)O)cc1 | 62.5 nM | 0.28 nM | –
8 | C[C@@]1(C(=O)N[C@@H](Cc2cccc(OC(=O)N3CCCC3)c2)C(=O)O)CCCN1S(=O)(=O)c1cc(Cl)cc(Cl)c1 | – | 3.65 nM | IC50 (Integrin alpha-4/beta-7 [5]): Not Active
9 | N#CCOc1ccc(C[C@H](NC(=O)[C@@H]2CCCN2S(=O)(=O)c2cc(Cl)cc(Cl)c2)C(=O)O)cc1 | 246 nM | 0.26 nM | –
10 | O=C(O)[C@H](Cc1ccc(OC(=O)N2CCCC2)cc1)NC(=O)[C@@H]1CCCN1S(=O)(=O)c1cc(Cl)cc(Cl)c1 | 1.92 nM | 0.13 nM | –
11 | C[C@@]1(C(=O)N[C@@H](Cc2ccc(OC(=O)N3CCCC3)cc2)C(=O)O)CCCN1S(=O)(=O)c1cc(Cl)cc(Cl)c1 | 5.26 nM | 0.17 nM | Clp (Rattus norvegicus [6]): 1.62 L/h/kg
12 | CC(C)(C)Oc1ccc(C[C@H](NC(=O)[C@@H]2CCCN2S(=O)(=O)c2cc(Cl)cc(Cl)c2)C(=O)O)cc1 | – | 0.21 nM | IC50 (Integrin alpha-4/beta-7 [4]): 116 nM
13 | CC(C)(C)Oc1ccc(C[C@H](NC(=O)[C@]2(C)CCCN2S(=O)(=O)c2cc(Cl)cc(Cl)c2)C(=O)O)cc1 | – | 0.27 nM | IC50 (Integrin alpha-4/beta-7 [4]): 647 nM
14 | CC(C)(C)OC(=O)COc1ccc(C[C@H](NC(=O)[C@@H]2CCCN2S(=O)(=O)c2cc(Cl)cc(Cl)c2)C(=O)O)cc1 | 211 nM | 0.13 nM | –
15 | CC(=O)COc1ccc(C[C@H](NC(=O)[C@@H]2CCCN2S(=O)(=O)c2cc(Cl)cc(Cl)c2)C(=O)O)cc1 | 51.4 nM | 0.18 nM | –
16 | CCN(CC)C(=O)Oc1ccc(C[C@H](NC(=O)[C@]2(C)CCCN2S(=O)(=O)c2cc(Cl)cc(Cl)c2)C(=O)O)cc1 | 29.8 nM | 0.19 nM | –
17 | CC(C)(C)OC(=O)COc1cccc(C[C@H](NC(=O)[C@]2(C)CCCN2S(=O)(=O)c2cc(Cl)cc(Cl)c2)C(=O)O)c1 | – | 0.41 nM | IC50 (Integrin alpha-4/beta-7 [5]): Not Active
18 | O=C(O)[C@H](Cc1ccc(OC(=O)N2CCCC2)cc1)NC(=O)[C@@H]1CCCN1S(=O)(=O)c1ccccc1 | 2.83 nM | 0.14 nM | half-life [2]: 12 min; Clp (Rattus norvegicus [3]): 10.6 L/h/kg
19 | CC(C)(C)Oc1cccc(C[C@H](NC(=O)[C@]2(C)CCCN2S(=O)(=O)c2cc(Cl)cc(Cl)c2)C(=O)O)c1 | – | 1.79 nM | IC50 (Integrin alpha-4/beta-7 [5]): Not Active
20 | O=C(O)[C@H](Cc1ccc(OCc2ccccc2)cc1)NC(=O)[C@@H]1CCCN1S(=O)(=O)c1cc(Cl)cc(Cl)c1 | 849 nM | 1.94 nM | –
21 | O=C(O)[C@H](Cc1ccc(O)cc1)NC(=O)[C@@H]1CCCN1S(=O)(=O)c1cc(Cl)cc(Cl)c1 | – | 0.34 nM | IC50 (Integrin alpha-4/beta-7 [4]): 820 nM
22 | O=C(Oc1ccc(C[C@H](NC(=O)[C@@H]2CCCN2S(=O)(=O)c2cc(Cl)cc(Cl)c2)C(=O)O)cc1)C1CCCC1 | 58.6 nM | 0.22 nM | –
23 | CCCCOc1ccc(C[C@H](NC(=O)[C@@H]2CCCN2S(=O)(=O)c2cc(Cl)cc(Cl)c2)C(=O)O)cc1 | – | 1.11 nM | IC50 (Integrin alpha-4/beta-7 [4]): 299 nM
24 | CC(C)N(C(=O)Oc1ccc(C[C@H](NC(=O)[C@]2(C)CCCN2S(=O)(=O)c2cc(Cl)cc(Cl)c2)C(=O)O)cc1)C(C)C | 62.4 nM | 0.22 nM | –
25 | O=C(Oc1ccc(C[C@H](NC(=O)[C@@H]2CCCN2S(=O)(=O)c2cc(Cl)cc(Cl)c2)C(=O)O)cc1)c1ccc[nH]1 | 13 nM | 0.26 nM | –
